# Key:
# Test in all cases: relative viability (nuclei count vs DMSO), 5 days (fraction); higher = more cells survive
# Trametinib + Lapatinib = compound: CC(=O)Nc1cccc(-n2c(=O)n(C3CC3)c(=O)c3c(Nc4ccc(I)cc4F)n(C)c(=O)c(C)c32)c1 [Trametinib] + CS(=O)(=O)CCNCc1ccc(-c2ccc3ncnc(Nc4ccc(OCc5cccc(F)c5)c(Cl)c4)c3c2)o1 [Lapatinib] (partner 2 µM)
# Method in brief: (§1)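 Lung cancer cell lines in 1536-well plates were dosed by pin tool the day after seeding, either with one drug alone or with a fixed anchor-drug dose plus five library-drug doses (not always all listed) in √10 steps. After 5 days, cells were fixed and their nuclei stained in one step (final 0.05% Triton X-100, 1% formaldehyde, 1 ug/ml Hoechst), then counted on 4× images. Relative viability is the nuclei count in treated wells divided by that in vehicle wells. Values are medians of duplicate plates.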
# [1] = compound: CN1C=C(C2=CC=CC=C21)/C=C\3/C4=C(C=CC=N4)NC3=O + O=C(c1cc(Cc2n[nH]c(=O)c3ccccc23)ccc1F)N1CCN(C(=O)C2CC2)CC1 [Olaparib] (partner 8 µM)
# Method in brief: as §1
# Trametinib + Olaparib = compound: CC(=O)Nc1cccc(-n2c(=O)n(C3CC3)c(=O)c3c(Nc4ccc(I)cc4F)n(C)c(=O)c(C)c32)c1 [Trametinib] + O=C(c1cc(Cc2n[nH]c(=O)c3ccccc23)ccc1F)N1CCN(C(=O)C2CC2)CC1 [Olaparib] (partner 8 µM)
# Method in brief: as §1
# [2] = compound: CN1C=C(C2=CC=CC=C21)/C=C\3/C4=C(C=CC=N4)NC3=O + COc1cc2c(Oc3ccc(NC(=O)C4(C(=O)Nc5ccc(F)cc5)CC4)cc3F)ccnc2cc1OCCCN1CCOCC1 [Foretinib] (partner 0.25 µM)
# Method in brief: as §1
Cell Line,relative viability (Trametinib + Lapatinib; first compound 0.0025 µM),relative viability (Trametinib + Lapatinib; first compound 0.007906 µM),relative viability (Trametinib + Lapatinib; first compound 0.025 µM),relative viability (Trametinib + Lapatinib; first compound 0.07906 µM),relative viability (Trametinib + Lapatinib; first compound 0.25 µM),relative viability ([1]; first compound 0.02 µM),relative viability ([1]; first compound 0.06325 µM),relative viability ([1]; first compound 0.2 µM),relative viability ([1]; first compound 0.6325 µM),relative viability ([1]; first compound 2 µM),relative viability (Trametinib + Olaparib; first compound 0.0025 µM),relative viability (Trametinib + Olaparib; first compound 0.007906 µM),relative viability (Trametinib + Olaparib; first compound 0.025 µM),relative viability (Trametinib + Olaparib; first compound 0.07906 µM),relative viability (Trametinib + Olaparib; first compound 0.25 µM),relative viability ([2]; first compound 0.02 µM),relative viability ([2]; first compound 0.06325 µM),relative viability ([2]; first compound 0.2 µM),relative viability ([2]; first compound 0.6325 µM),relative viability ([2]; first compound 2 µM)
ABC-1,0.789,1.16,1.18,1.13,1.2,0.976,0.745,0.612,0.826,0.86,0.821,0.725,0.977,0.752,1.13,0.929,1.08,1.16,1.13,1.13
HCC-44,0.996,0.868,0.929,0.701,0.493,0.908,0.954,1.02,0.997,0.942,0.96,1.06,1.08,0.897,0.87,,,,,
HCC-78,0.827,0.533,0.988,0.299,0.469,0.78,0.773,0.688,0.754,0.818,0.774,0.642,0.82,0.808,0.557,0.545,0.554,,0.509,0.552
LXF-289,0.863,0.759,0.677,0.615,0.57,1.09,0.998,1.19,1.07,1.1,1.01,0.906,0.803,0.756,0.665,0.943,0.957,1.04,1.05,0.977
201T,1.06,0.922,0.93,0.879,0.928,0.821,0.781,0.868,0.931,0.87,0.841,0.782,0.747,0.678,0.642,1.27,1,0.983,0.773,0.713
NCI-H1734,1.02,1.01,,1.03,0.517,0.355,0.596,,0.588,0.631,0.632,0.578,,0.59,0.431,0.928,0.875,,0.904,1.03
NCI-H1623,,,,,,,,,,,,,,,,0.838,0.878,0.701,0.712,0.755
NCI-H2126,0.721,0.675,0.46,0.703,0.718,0.888,0.853,0.919,0.971,0.883,0.801,0.822,0.742,0.753,0.615,1.13,1.12,1.22,0.867,1.11
LOU-NH91,0.745,0.736,0.603,0.753,0.414,0.906,0.871,0.883,0.841,0.901,0.893,0.829,0.849,0.809,0.483,0.904,0.915,0.835,0.925,0.9
